# Biological target: Histamine H3 receptor (Rattus norvegicus, UniProt Q9QYN8)
# Test: Binding affinity at histamine H3 receptor in rat cortical membranes by [3H]Nalpha-methylhistamine displacement.
# Type: cell membranes
# Chain of Histamine H3 receptor (Q9QYN8 whole entry): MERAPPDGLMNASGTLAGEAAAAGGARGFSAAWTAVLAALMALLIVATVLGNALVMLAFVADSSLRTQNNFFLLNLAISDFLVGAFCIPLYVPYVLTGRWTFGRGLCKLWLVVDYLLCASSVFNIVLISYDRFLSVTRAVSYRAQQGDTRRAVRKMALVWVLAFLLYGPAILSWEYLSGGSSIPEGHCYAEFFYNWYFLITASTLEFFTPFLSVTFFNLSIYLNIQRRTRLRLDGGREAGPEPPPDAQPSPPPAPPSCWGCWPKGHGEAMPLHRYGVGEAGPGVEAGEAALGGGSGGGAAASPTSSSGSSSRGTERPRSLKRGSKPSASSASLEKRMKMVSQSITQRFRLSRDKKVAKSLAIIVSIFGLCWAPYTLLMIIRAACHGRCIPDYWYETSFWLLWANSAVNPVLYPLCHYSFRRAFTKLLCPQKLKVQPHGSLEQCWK
row,SMILES,Ki
1,CCCC#CC1CC1c1c[nH]cn1 (stereo not drawn),5.1 nM
2,CC(C)(C)CCC#C[C@@H]1C[C@H]1c1c[nH]cn1 [CIPRALISANT],0.12 nM
3,C(#CCCC1CCCC1)CCc1c[nH]cn1,0.9 nM

# From ChEMBL document CHEMBL1132601, “Design, synthesis, and structure-activity relationships of acetylene-based histamine H3 receptor antagonists” (J Med Chem, 1999)
